From ChEMBL document CHEMBL5543112, “Discovery of CBPD-268 as an Exceptionally Potent and Orally Efficacious CBP/p300 PROTAC Degrader Capable of Achieving Tumor Regression” (J Med Chem, 2024)
pIC50: −log10 of the molar value. Active and inactive are the calls of the source. The calls are words filed in the database; no cut-off is given here.

What was measured:
[1] = Drug distribution in Sprague-Dawley rat plasma at 3 mg/kg, po measured at 6 hrs by LC-MS/MS analysis; format: ADME, organism-based
[2] = Drug distribution in Sprague-Dawley rat kidney at 10 mg/kg, po measured at 1 hr by LC-MS/MS analysis; format: ADME, organism-based; conditions: read-out: Ct
[3] = Toxicity in immune-competent Sprague-Dawley rat assessed as change in platelet count at 1 to 10 mg/kg, po administered twice a week for 5 weeks; format: organism-based; conditions: in vivo, 840 h, dose 1-10 mg/kg
[4] = Drug distribution in Sprague-Dawley rat liver at 3 mg/kg, po measured at 6 hrs by LC-MS/MS analysis; format: ADME, organism-based; conditions: read-out: Ct
[5] = Toxicity in immune-competent Sprague-Dawley rat assessed as change in red blood cells count at 1 to 10 mg/kg, po administered twice a week for 5 weeks; format: organism-based; conditions: in vivo, 840 h, dose 1-10 mg/kg
[6] = Drug distribution in SCID mouse plasma at 3 mg/kg, po measured at 6 hrs by LC-MS/MS analysis; format: ADME, organism-based
[7] = Toxicity in immune-competent Sprague-Dawley rat assessed as change in calcium level at 1 to 10 mg/kg, po administered twice a week for 5 weeks; format: organism-based; conditions: in vivo, 840 h, dose 1-10 mg/kg
[8] = Drug distribution in SCID mouse liver at 1 mg/kg, po measured at 6 hrs by LC-MS/MS analysis; format: ADME, organism-based; conditions: read-out: Ct
[9] = Drug distribution in SCID mouse tumor at 3 mg/kg, po measured at 6 hrs by LC-MS/MS analysis; format: ADME, organism-based, Neoplasm; conditions: read-out: Ct
[10] = Chemical stability of the compound assessed as parent compound remaining measured at 3 hrs; format: physicochemical
[11] = Drug distribution in Sprague-Dawley rat spleen at 3 mg/kg, po measured at 6 hrs by LC-MS/MS analysis; format: ADME, organism-based; conditions: read-out: Ct
[12] = Drug distribution in Sprague-Dawley rat spleen at 10 mg/kg, po measured at 24 hrs by LC-MS/MS analysis; format: ADME, organism-based; conditions: read-out: Ct
[13] = Drug distribution in Sprague-Dawley rat liver at 10 mg/kg, po measured at 24 hrs by LC-MS/MS analysis; format: ADME, organism-based; conditions: read-out: Ct
[14] = Toxicity in immune-competent Sprague-Dawley rat assessed as change in blood urea nitrogen level at 1 to 10 mg/kg, po administered twice a week for 5 weeks; format: organism-based; conditions: in vivo, 840 h, dose 1-10 mg/kg
[15] = Toxicity in male BALB/c mouse assessed as body weight loss at 30 mg/kg, po administered twice a week for 5 to 6 weeks; format: organism-based; conditions: in vivo, time 5-6 weeks
[16] = Drug distribution in SCID mouse plasma at 0.3 mg/kg, po measured at 1 hr by LC-MS/MS analysis; format: ADME, organism-based
[17] = Metabolic stability in rat plasma assessed as half life measured upto 120 mins by LC-MS/MS analysis; format: ADME, cell-free
[18] = Half life in ICR mouse at 3 mg/kg, po measured upto 24 hrs by LC/MS-MS analysis; format: ADME, organism-based; conditions: in vivo
[19] = Drug distribution in SCID mouse plasma at 1 mg/kg, po measured at 6 hrs by LC-MS/MS analysis; format: ADME, organism-based
[20] = Drug distribution in Sprague-Dawley rat spleen at 10 mg/kg, po measured at 6 hrs by LC-MS/MS analysis; format: ADME, organism-based; conditions: read-out: Ct
CWR22R [21] = experiment: Antitumor activity against human 22Rv1 cells xenografted in SCID mouse assessed as reduction in BRD3 level in tumor at 1 to 3 mg/kg, po measured at 6 to 24 hrs by Western blotting analysis; format: functional, organism-based; conditions: dose 1-3 mg/kg, time 6-24 hrs
[22] = Drug distribution in SCID mouse plasma at 1 mg/kg, po measured at 1 hr by LC-MS/MS analysis; format: ADME, organism-based
[23] = Drug concentration in SCID mouse tumor at 1 mg/kg, po measured at 6 hrs by LC-MS/MS analysis; format: ADME, organism-based, Neoplasm; conditions: read-out: Ct
CWR22R [24] = experiment: Antitumor activity against human 22Rv1 cells xenografted in SCID mouse assessed as tumor growth inhibition at 3 mg/kg, po administered 3 times a week for 3 weeks; format: functional; conditions: 22Rv1, 504 h, read-out: TGI
[25] = Half life in ICR mouse at 1 mg/kg, iv measured upto 24 hrs by LC/MS-MS analysis; format: ADME, organism-based; conditions: in vivo
[26] = Drug concentration in SCID mouse plasma at 1 mg/kg, po measured at 6 hrs by LC-MS/MS analysis; format: ADME, organism-based
[27] = Clearance in Sprague-Dawley rat at 1 mg/kg, iv measured upto 24 hrs by LC/MS-MS analysis; format: ADME, organism-based; conditions: in vivo
[28] = Volume of distribution at steady state in Sprague-Dawley rat at 1 mg/kg, iv measured upto 24 hrs by LC/MS-MS analysis; format: ADME, organism-based; conditions: in vivo, read-out: Vdss
Cytochrome P450 3A4 = Cytochrome P450 3A4 (Homo sapiens, UniProt P08684); experiment: Inhibition of CYP3A4 (unknown origin) using testosterone as substrate preincubated with compound for 5 mins followed by NADPH addition and measured after 20 mins by LC-MS/MS analysis; format: ADME
Chain of Cytochrome P450 3A4 (P08684 whole entry): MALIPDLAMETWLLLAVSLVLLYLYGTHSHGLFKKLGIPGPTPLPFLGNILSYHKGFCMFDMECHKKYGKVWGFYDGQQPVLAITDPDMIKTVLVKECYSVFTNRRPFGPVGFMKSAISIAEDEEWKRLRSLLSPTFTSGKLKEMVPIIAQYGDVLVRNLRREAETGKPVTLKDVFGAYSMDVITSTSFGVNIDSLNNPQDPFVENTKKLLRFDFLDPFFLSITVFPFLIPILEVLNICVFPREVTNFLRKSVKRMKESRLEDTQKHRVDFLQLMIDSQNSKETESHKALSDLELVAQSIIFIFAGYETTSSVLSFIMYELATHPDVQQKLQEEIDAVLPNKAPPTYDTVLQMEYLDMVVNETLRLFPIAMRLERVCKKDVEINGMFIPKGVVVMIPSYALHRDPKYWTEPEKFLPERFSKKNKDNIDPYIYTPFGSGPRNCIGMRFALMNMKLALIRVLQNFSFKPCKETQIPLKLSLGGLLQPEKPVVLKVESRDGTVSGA

[29] = Drug distribution in Sprague-Dawley rat plasma at 10 mg/kg, po measured at 24 hrs by LC-MS/MS analysis; format: ADME, organism-based
[30] = Toxicity in SCID mouse xenografted with human 22Rv1 cells assessed as loss of body weight at 0.3 to 3 mg/kg, po administered upto 3 weeks; format: organism-based, CWR22R; conditions: in vivo, 504 h, dose 0.3-3 mg/kg
[31] = Drug concentration in SCID mouse plasma at 1 mg/kg, po measured at 1 hr by LC-MS/MS analysis; format: ADME, organism-based
[32] = Toxicity in SCID mouse xenografted with human VCaP cells assessed as loss of body weight at 1 to 3 mg/kg, po administered daily 5 times a week for 4 weeks; format: organism-based; conditions: in vivo, 672 h, dose 1-3 mg/kg
[33] = Toxicity in immune-competent Sprague-Dawley rat assessed as change in total protein level at 1 to 10 mg/kg, po administered twice a week for 5 weeks; format: organism-based; conditions: in vivo, 840 h, dose 1-10 mg/kg
[34] = Drug distribution in SCID mouse spleen at 0.3 mg/kg, po measured at 1 hr by LC-MS/MS analysis; format: ADME, organism-based; conditions: read-out: Ct
[35] = Metabolic stability in human liver microsome assessed as half life measured upto 60 mins in presence of NADPH by LC-MS/MS analysis; format: ADME; conditions: liver microsomes
[36] = Drug distribution in SCID mouse tumor at 0.3 mg/kg, po measured at 1 hr by LC-MS/MS analysis; format: ADME, organism-based, Neoplasm; conditions: read-out: Ct
VCaP [37] = experiment: Antitumor activity against human VCaP cells xenografted in SCID mouse assessed as tumor growth inhibition at 1 mg/kg, po administered twice a week for 4 week; format: functional; conditions: 672 h, time 4 weeks, read-out: TGI
[38] = Drug distribution in Sprague-Dawley rat plasma at 10 mg/kg, po measured at 6 hrs by LC-MS/MS analysis; format: ADME, organism-based
[39] = Drug distribution in Sprague-Dawley rat plasma at 3 mg/kg, po measured at 1 hr by LC-MS/MS analysis; format: ADME, organism-based
[40] = AUC in ICR mouse at 3 mg/kg, po measured upto 24 hrs by LC/MS-MS analysis; format: ADME, organism-based; conditions: in vivo
VCaP [41] = experiment: Antitumor activity against human VCaP cells xenografted in SCID mouse assessed as tumor growth inhibition at 3 mg/kg, po administered for 4 week; format: functional; conditions: 672 h, time 4 weeks, read-out: TGI

## CC(=O)N1CCc2c(c(N3CCCc4cc(-c5cnn(C)c5)c(C(F)F)cc43)nn2[C@H]2CC[C@H](CN3Cc4cc5c(cc4C3)C(=O)N(C3CCC(=O)NC3=O)C5=O)CC2)C1 (some centres not stated)
[1]
  concentration at 6 h: 13.1 ng/mL
[2]
  concentration at 1 h: 1170 ng/g
[3]
  Activity: Non-Toxic
[4]
  concentration at 6 h: 148 ng/g
[5]
  Activity: Non-Toxic
[6]
  concentration at 6 h: 763 ng/mL
[7]
  Activity: Non-Toxic
[8]
  concentration at 6 h: 301 ng/mL
[9]
  concentration at 6 h: 294 ng/g
[10]
  Stability: Stable
[11]
  concentration at 6 h: 112 ng/g
[12]
  concentration at 24 h: 12.6 ng/g
[13]
  concentration at 24 h: 20.2 ng/g
[14]
  Activity: Non-Toxic
[15]
  Activity: < 5%
[16]
  concentration at 1 h: 35.2 ng/mL
[17]
  half-life: 48 min
[18]
  half-life: 186 min
[19]
  concentration at 6 h: 43.2 ng/mL
[20]
  concentration at 6 h: 406 ng/g
CWR22R [21]
  Activity: Active
[22]
  concentration at 1 h: 212 ng/mL
[23]
  concentration at 6 h: 12.6 ng/g
CWR22R [24]
  inhibition in vivo at 3 mg/kg: 83%
[25]
  t1/2: 204 min
[26]
  concentration at 6 h: 14.1 ng/mL
[27]
  clearance: 34.6 mL/min/kg
[28]
  Vd: 4.9 L/kg
Cytochrome P450 3A4
  pIC50: < 5.00
[29]
  concentration at 24 h: 1.3 ng/mL
[30]
  Activity: Non-Toxic
[31]
  concentration at 1 h: 141 ng/mL
[32]
  Activity: > 8%
[33]
  Activity: Non-Toxic
[34]
  concentration at 1 h: 91 ng/mL
[35]
  half-life: 48 min
[36]
  concentration at 1 h: 27.8 ng/g
VCaP [37]
  inhibition in vivo at 1 mg/kg: 81%
[38]
  concentration at 6 h: 41.4 ng/mL
[39]
  concentration at 1 h: 109 ng/mL
[40]
  AUC at 24 h: 4190 ng·h/mL
VCaP [41]
  inhibition in vivo at 3 mg/kg: 57%
